# Reference: patent US20230390297A1, “USE OF NUCLEOTIDE SYNTHESIS INHIBITORS FOR TARGETED THERAPY IN MLL3/4 COMPASS MUTANT CANCER” (priority 2022, published 2023)
# Legend:
# [1] = tested on: RKO, HCT116, DLD1 (MLL4 mutant) and HT55, Caco2, SW1417 (MLL4 WT) cells; experiment: RNA-seq in colorectal cancer cells treated with LTX; format: cell-based, human; conditions: 1 μM LTX, 24 hours
# Method: FIG. 5. MLL4 mutant colorectal cancer cells are selectively sensitive to lometrexol treatment. (A) 100 μL of 0.5×10^5 cells/mL cells were seeded in 96-well plates one day before treatment. Cells were treated with 0-30 μM lometrexol (LTX) with 3× fold dilution for 72 hours. CellTiter-Glo® luminescent cell viability assay was performed to determine the percentage of inhibition under these conditions. The line plot compares sensitivity difference of all cell lines tested. (B) RKO, HCT116, DLD1, Caco2, HT55 and SW1417 cells were treated with DMSO or 1 μM LTX for 24 hours and whole cell lysates were used for western blot against cell cycle (H3 Ser10-p, CDT1, CyclinB 1, Geminin, CyclinEl, CyclinA2, p-cdc2) and apoptosis (PARP, Caspase3) markers using Hsp90 and I3-tubulin as loading control. […] (F) A subset of representative terms from the full cluster were selected and converted into a network layout. Each term is represented by a circle node, where its size is proportional to the number of input genes fall under that term, and its color represent its cluster identity. Terms with a similarity score>0.3 are linked by an edge (the thickness of the edge represents the similarity score). The network is visualized with Cytoscape with “force-directed” layout and with edge bundled for clarity. One term from each cluster is selected to have its term description shown as label.
# FIG. 18. RNA-seq data in colorectal cancer cells treated with LTX. (A) Cellular morphological change in different cells treated with LTX at 1 μM for 24 hours under bring field microscope.
# FIG. 19. The unique gene expression signature of MLL4 mutant cells in response to LTX treatment. (A-B) RNA-seq track examples showing the AURKA (A) and PLK1 (B) gene expression in different cell lines in response to LTX treatment. […] The 10 common genes found in the plots were defined as “lometrexol responsive mitotic gene signature” including PLK1, AURKA, CDCA3, CDC20, SFPQ, POLA1, PSRC1, KIF20A, FAM83D, and DLGAP5. (D) Volcano plots showing the 10 genes in MLL4 WT cell lines including HT55, Caco2, and SW1417.
# Gene count tables were constructed using HTseq (56) with Ensembl gene annotations and used as input for edgeR 3.0.8 (57). Genes with Benjamini-Hochburg adjusted p-values less than were differentially expressed. Batch effects were removed using ComB at-seq on the raw read counts (58). Pathway analysis was performed with Metascape (59).
# [2] = tested on: HCT116 sc xenografts (MLL4 mutant); experiment: HCT116 subcutaneous xenograft in nude mice; format: in vivo
# Method: FIG. 6. Inhibition of de novo purine synthesis by lometrexol inhibits MLL4 mutant tumor growth. Tumor development after inoculation of 4×10^6 of HCT116 cells into the nude mice. Mice with HCT116 subcutaneous (sc) tumor were either treated with vehicle (DMSO, n=9) or LTX (25 mg/kg, n=9) daily for 7 days. (A) Growth plots for sc tumors in each treatment group were shown. Tumor volumes (mm3) show mean and upper SD. (B) Dot plot representation of sc tumor volume in mice at day 12 post-tumor cell injection. Unpaired t-test values for comparisons between DMSO and LTX treatment: ****, P<0.0001. (C) Photographs of nude mice (left) and sc tumor taken from these mice (right) in which HCT116 cells were inoculated into the right flank. (D) Animal survival at the indicated days after inoculation. Log-rank test was used for comparisons between DMSO and LTX treatment: ****, P<0.0001. (E) H&E staining and immunohistochemistry showing the proliferation and apoptosis in tumors with Ki-67 and TUNEL staining. The signals for Ki-67 and TUNEL are quantified and shown in the bar plots on the right.
# FIG. 20. Lometrexol application in MLL4 mutant tumors in the xenograft mouse models. (A-D) Tumor development after inoculation of 4×10^6 of HT55 cells into the nude mice. Mice with HT55 subcutaneous (sc) tumor were either treated with vehicle (DMSO, n=9) or LTX (15 mg/kg, n=9) daily for 7 days. (A) Growth plots for sc tumors in each treatment group were shown. Tumor volumes (mm3) show mean and upper SD. (B) Dot plot representation of sc tumor volume in mice at day 18 post-tumor cell injection. […] (C) Photographs of nude mice (upper) and sc tumor taken from these mice (lower) in which HT55 cells were inoculated into the right flank. (D) Animal survival at the indicated days after inoculation. Log-rank test was used for comparisons between DMSO and LTX treatment. (E-H) Tumor development after inoculation of 4×10^6 of HCT116 cells into the nude mice. Mice with HCT116 subcutaneous (sc) tumor were either treated with vehicle (DMSO, n=9) or LTX (15 mg/kg, n=9) daily for 7 days. (E) Growth plots for sc tumors in each treatment group were shown. Tumor volumes (mm3) show mean and upper SD. (F) Dot plot representation of sc tumor volume in mice at day 12 post-tumor cell injection. Unpaired t-test values for comparisons between DMSO and LTX treatment: ***, P<0.001. (G) Photographs of nude mice (upper) and sc tumor taken from these mice (lower) in which HCT116 cells were inoculated into the right flank. (H) Animal survival at the indicated days after inoculation. Log-rank test was used for comparisons between DMSO and LTX treatment: ***, P<0.001.
# Six-week-old female athymic mice (nu/nu genotype, BALB/c background) were purchased from Envigo (Indianapolis, IN, USA) and housed under aseptic conditions. HT55 or HCT116 cells were implanted into the flank of athymic mice as previously described (65). Briefly, 4×10^6 cells, in 0.4 ml of cell culture media with matrigel (BD Bioscience) at 1:1 ratio, were injected in the right flank of mice under anesthetization by isoflurane. […] The tumor sizes were measured on alternate days and the mice were euthanized when the tumor size reached 1000 mm^3. […]
# (§1) For in vivo study, the Kaplan-Meier estimator and Prism software were used to generate and analyze survival plots. Differences between survival plots were calculated using a log-rank test. […]
# HT55 (MLL4 WT) xenograft = experiment: HT55 subcutaneous xenograft in nude mice; format: in vivo
# Method: FIG. 20. Lometrexol application in MLL4 mutant tumors in the xenograft mouse models. (A-D) Tumor development after inoculation of 4×10^6 of HT55 cells into the nude mice. Mice with HT55 subcutaneous (sc) tumor were either treated with vehicle (DMSO, n=9) or LTX (15 mg/kg, n=9) daily for 7 days. (A) Growth plots for sc tumors in each treatment group were shown. Tumor volumes (mm3) show mean and upper SD. (B) Dot plot representation of sc tumor volume in mice at day 18 post-tumor cell injection. […] (C) Photographs of nude mice (upper) and sc tumor taken from these mice (lower) in which HT55 cells were inoculated into the right flank. (D) Animal survival at the indicated days after inoculation. Log-rank test was used for comparisons between DMSO and LTX treatment. (E-H) Tumor development after inoculation of 4×10^6 of HCT116 cells into the nude mice. […]
# Six-week-old female athymic mice (nu/nu genotype, BALB/c background) were purchased from Envigo (Indianapolis, IN, USA) and housed under aseptic conditions. […] The tumor sizes were measured on alternate days and the mice were euthanized when the tumor size reached 1000 mm^3. […]
# as §1
# [3] = LTX 25 mg/kg daily for 7 days vs DMSO
structure (smiles),measurement,setting,value
"Nc1nc2c(c(=O)[nH]1)C[C@@H](CCc1ccc(C(=O)N[C@@H](CCC(=O)O)C(=O)O)cc1)CN2 [lometrexol, (2S)-2-[[4-[2-[(6R)-2-amino-4-oxo-5,6,7,8-tetrahydro-3H-pyrido[2,3-d]pyrimidin-6-yl]ethyl]benzoyl]amino]pentanedioic acid]",differential gene expression change,[1]; MLL4 mutant vs WT cells,only induced significant differential gene expression change in MLL4 mutant cells
same,PLK1 and AURKA gene expression,[1]; remained the same in MLL4 WT cells,remarkably diminished in all MLL4 mutant cells
same,"genes commonly downregulated in all MLL4 mutant cells (RKO, HCT116, DLD1)",[1]; unaffected in MLL4 WT cells,885 genes
same,"genes commonly upregulated in MLL4 mutant cells (RKO, HCT116, DLD1)",[1]; unaffected in MLL4 WT cells,707 genes
same,tumor growth at lower dose,"[2]; LTX 15 mg/kg daily for 7 days vs DMSO, tumor volume day 12 P<0.001, survival P<0.001",maintained the sensitivity to LTX at a lower dose
same,apoptosis in tumors (TUNEL),[2]; [3],enhanced apoptosis
same,cell proliferation in tumors (Ki-67),[2]; [3],significantly decreased
same,subcutaneous tumor growth (tumor volume),"[2]; LTX 25 mg/kg intraperitoneally daily for 7 days vs DMSO, P<0.0001",significantly inhibited the subcutaneous (sc) tumor growth
same,survival of recipient mice,"[2]; LTX 25 mg/kg intraperitoneally daily for 7 days vs DMSO, log-rank P<0.0001",extend the survival of recipient mice
same,"sc tumor volume at day 18 post-tumor cell injection, DMSO vs LTX (unpaired t-test)",HT55 (MLL4 WT) xenograft; LTX 15 mg/kg daily for 7 days,not statistically significant
same,tumor growth,HT55 (MLL4 WT) xenograft; LTX 15 mg/kg daily for 7 days vs DMSO,almost completely resistant to LTX
